In this experiment the target is T1, HIV-1 reverse transcriptase (HIV-1 RT) (HIV-1 M:B_HXB2R, UniProt P04585).
T1 construct: gene gag-pol; recombinant HIV-1 RT used with commercial ELISA kit (Roche Molecular Biochemicals); mature chains cut from Gag-Pol polyprotein; with p51 RT
The experiment can be described thus: RT ELISA (DIG-labelled reaction mixture, anti-DIG-POD, ABTS; Roche kit). The format is biochemical. As to conditions: 37 °C, 15 h. The text has this: RT ELISA (DIG-labelled reaction mixture, anti-DIG-POD, ABTS; Roche kit) on HIV-1 reverse transcriptase (HIV-1 RT)
On the technique in general: ELISA stands for enzyme-linked immunosorbent assay.

By IC50 is commonly meant the concentration needed to halve the response being measured. For `CC(=O)N(C)/C=C/c1ccccc1Br` [5c, (E)-N-(2-bromostyryl)-N-methylacetamide], the IC50 was determined as 339 ± 107 µM.

As for `CC(=O)N(/C=C/c1ccccc1Br)C(C)=O` [5f, (E)-N-(2-bromostyryl)-N-acetylacetamide], the IC50 was determined as 320 ± 22 µM.

On to `CC(=O)N(/C=C/c1ccccc1Br)Cc1c(F)cccc1F` [5h, (E)-N-(2-bromostyryl)-N-2’,6’-difluorobenzylacetamide], for which the IC50 is 295 ± 9 µM.

`CC(=O)N(/C=C/c1ccccc1Br)Cc1cc(F)cc(F)c1` [5i, (E)-N-(2-bromostyryl)-N-3’,5’-difluorobenzylacetamide]: the IC50 turned out to be 97 ± 13 µM.

For `CC(=O)N(C)/C=C/c1ccccc1Cl` [5k, (E)-N-(2-chlorostyryl)-N-methylacetamide], the IC50 came out at 434 ± 44 µM.

Take `CCN(/C=C/c1ccccc1Cl)C(C)=O` [5l, (E)-N-(2-chlorostyryl)-N-ethylacetamide]: the IC50 worked out at 521 ± 11 µM.

As to `CC(=O)N(C)/C=C/c1ccccc1F` [5n, (E)-N-(2-fluorostyryl)-N-methylacetamide], the IC50 was determined as 477 ± 107 µM.

Take `CC(=O)N(C)/C=C/c1ccccc1C` [5p, (E)-N-(2-methylstyryl)-N-methylacetamide]: the IC50 came to 487 ± 27 µM.

`COc1ccc(/C=C/N(C)C(C)=O)c(OC)c1` [5r, (E)-N-(2,4-dimethoxystyryl)-N-methylacetamide]: the IC50 turned out to be 373 ± 40 µM.

Regarding `O=C(O)P(=O)(O)O` [PFA, reference compound], the IC50 came to 5 µM.

Values taken from PMC6254728, “Synthesis and Anti-Human Immunodeficiency Virus Type 1 Activity of (E)-N-Phenylstyryl-N-alkylacetamide Derivatives” (Molecules, 2009).
